Active and inactive are the calls of the source. No cut-off for these calls is given here.
What was measured:
[1] = molecular target: T1, Gonadotropin-releasing hormone receptor (Homo sapiens, UniProt P30968); assay: Antagonist activity against human GnRH receptor expressed in HEK293 cells co-transfected with pGL4-NFAT promoter AP1-luc assessed as inhibition of 20 nM GnRH-induced NFAT activation pre-incubated for 1 hr before GnRH stimulation and measured after 6 hrs by luciferase reporter gene assay; format: cell-based
T1 sequence (P30968 whole entry): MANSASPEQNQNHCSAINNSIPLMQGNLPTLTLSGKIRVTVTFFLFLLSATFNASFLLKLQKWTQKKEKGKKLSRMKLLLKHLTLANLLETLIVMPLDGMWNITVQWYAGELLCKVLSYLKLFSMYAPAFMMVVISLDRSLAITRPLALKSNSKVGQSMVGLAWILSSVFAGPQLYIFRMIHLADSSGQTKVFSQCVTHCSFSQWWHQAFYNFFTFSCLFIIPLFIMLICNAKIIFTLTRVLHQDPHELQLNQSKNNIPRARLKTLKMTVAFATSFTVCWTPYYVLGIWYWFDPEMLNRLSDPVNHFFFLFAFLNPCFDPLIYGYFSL

CYP3A4 = CYP3A4 (Homo sapiens, UniProt P08684); assay: Inhibition of human recombinant CYP3A4 expressed in baculosomes at 10 uM incubated for 30 mins using BOMR substrate by fluorescence based assay; format: ADME; conditions: probe BOMR
Chain of CYP3A4 (P08684 whole entry): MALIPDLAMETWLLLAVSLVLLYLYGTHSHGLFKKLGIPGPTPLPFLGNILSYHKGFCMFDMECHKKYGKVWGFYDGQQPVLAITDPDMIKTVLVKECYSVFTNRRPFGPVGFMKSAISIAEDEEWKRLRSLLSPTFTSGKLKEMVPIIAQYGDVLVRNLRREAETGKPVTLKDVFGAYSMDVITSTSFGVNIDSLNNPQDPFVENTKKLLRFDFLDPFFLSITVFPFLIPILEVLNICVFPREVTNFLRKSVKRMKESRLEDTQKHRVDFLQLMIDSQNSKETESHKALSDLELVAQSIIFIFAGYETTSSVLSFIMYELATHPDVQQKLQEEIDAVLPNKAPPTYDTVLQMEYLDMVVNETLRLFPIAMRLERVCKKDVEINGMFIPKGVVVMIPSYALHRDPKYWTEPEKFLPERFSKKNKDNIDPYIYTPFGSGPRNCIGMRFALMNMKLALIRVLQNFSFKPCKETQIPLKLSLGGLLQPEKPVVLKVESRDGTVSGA

[2] = molecular target: T1, Gonadotropin-releasing hormone receptor; assay: Displacement of [125I]D-Trp6-LHRH from human GnRH receptor expressed in CHO-K1 cell membranes incubated for 1 hr by competitive binding assay
[3] = molecular target: T2, Gonadotropin-releasing hormone receptor (Rattus norvegicus, UniProt P30969); assay: Antagonist activity against rat GnRH receptor expressed in HEK293 cells co-transfected with pGL4-NFAT promoter AP1-luc assessed as inhibition of 1 nM GnRH-induced NFAT activation pre-incubated for 1 hr before GnRH stimulation and measured after 6 hrs by luciferase reporter gene assay; format: cell-based
T2 sequence (P30969 whole entry): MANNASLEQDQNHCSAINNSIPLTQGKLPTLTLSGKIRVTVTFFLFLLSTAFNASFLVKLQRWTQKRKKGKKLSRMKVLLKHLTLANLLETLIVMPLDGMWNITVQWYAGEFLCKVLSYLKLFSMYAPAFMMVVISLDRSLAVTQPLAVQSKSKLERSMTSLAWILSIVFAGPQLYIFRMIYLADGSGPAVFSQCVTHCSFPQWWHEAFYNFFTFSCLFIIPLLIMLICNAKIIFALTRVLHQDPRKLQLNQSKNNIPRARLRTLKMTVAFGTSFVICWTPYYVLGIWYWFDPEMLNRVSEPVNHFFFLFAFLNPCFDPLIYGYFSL

[4] = molecular target: T3, Gonadotropin-releasing hormone receptor (Macaca mulatta, UniProt Q8SPZ1); assay: Antagonist activity against monkey GnRH receptor expressed in HEK293 cells co-transfected with pGL4-NFAT promoter AP1-luc assessed as inhibition of 10 nM GnRH-induced NFAT activation pre-incubated for 1 hr before GnRH stimulation and measured after 6 hrs by luciferase reporter gene assay; format: cell-based
T3 sequence (Q8SPZ1 whole entry): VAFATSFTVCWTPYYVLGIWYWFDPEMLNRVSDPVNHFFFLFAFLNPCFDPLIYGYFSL

[5] = molecular target: T1, Gonadotropin-releasing hormone receptor; assay: Antagonist activity against human GnRH receptor expressed in HEK293 cells assessed as reduction in ERK1/2 phosphorylation pre-incubated for 5 mins before LHRH stimulation for 5 mins by chemiluminescence based assay; format: cell-based
[6] = molecular target: T1, Gonadotropin-releasing hormone receptor; assay: Antagonist activity against human GnRH receptor expressed in HEK293 cells co-transfected with pGL4-NFAT promoter AP1-luc assessed as inhibition of 1 nM GnRH-induced NFAT activation pre-incubated for 1 hr before GnRH stimulation and measured after 6 hrs by luciferase reporter gene assay; format: cell-based
[7] = molecular target: T2, Gonadotropin-releasing hormone receptor; assay: Displacement of [125I]D-Trp6-LHRH from rat GnRH receptor expressed in HEK293 cell membranes incubated for 1 hr by competitive binding assay
[8] = molecular target: T1, Gonadotropin-releasing hormone receptor; assay: Antagonist activity against human GnRH receptor expressed in […] assessed as inhibition of LHRH-induced calcium flux by FLIPR assay; format: functional, cell-based
[9] = molecular target: T3, Gonadotropin-releasing hormone receptor; assay: Displacement of [125I]D-Trp6-LHRH from monkey GnRH receptor expressed in HEK293 cell membranes incubated for 1 hr by competitive binding assay
[10] = AUC (infinity) in castrated cynomolgus monkey at 10 mg/kg, po by mass spectrometry; format: ADME, organism-based, Macaca fascicularis; set-up: dose 10 mg/kg, route oral, time infinity; conditions: male, in vivo
[11] = AUC (infinity) in beagle dog at 10 mg/kg, po by mass spectrometry; format: ADME, organism-based, Canis lupus familiaris; set-up: dose 10 mg/kg, time infinity, route oral; conditions: in vivo
[12] = Cmax in beagle dog at 10 mg/kg, po by mass spectrometry; format: ADME, organism-based, Canis lupus familiaris; set-up: dose 10 mg/kg, route oral; conditions: in vivo
Cynomolgus monkey [13] = assay: Reduction in serum LH level in castrated male cynomolgus monkey at 30 mg/kg, po administered as single dose after 12 hrs by RIA method; format: functional; conditions: Macaca fascicularis
[14] = Cmax in castrated male cynomolgus monkey at 30 mg/kg, po administered as single dose; format: ADME, organism-based, Macaca fascicularis; set-up: dose 30 mg/kg, route oral; conditions: in vivo
[15] = Cmax in Sprague-Dawley rat at 10 mg/kg, po by mass spectrometry; format: ADME, organism-based; set-up: dose 10 mg/kg, route oral; conditions: in vivo
[16] = Half life in Sprague-Dawley rat at 10 mg/kg, po by mass spectrometry; format: ADME, organism-based; conditions: in vivo
[17] = Oral bioavailability in beagle dog at 10 mg/kg by mass spectrometry; format: ADME, organism-based, Canis lupus familiaris; conditions: in vivo
[18] = Tmax in castrated cynomolgus monkey at 10 mg/kg, po by mass spectrometry; format: ADME, organism-based, Macaca fascicularis; conditions: male, in vivo
[19] = Half life in castrated cynomolgus monkey at 10 mg/kg, po by mass spectrometry; format: ADME, organism-based, Macaca fascicularis; conditions: male, in vivo
[20] = Half life in beagle dog at 10 mg/kg, po by mass spectrometry; format: ADME, organism-based, Canis lupus familiaris; conditions: in vivo
[21] = Tmax in beagle dog at 10 mg/kg, po by mass spectrometry; format: ADME, organism-based, Canis lupus familiaris; conditions: in vivo
[22] = Cmax in castrated cynomolgus monkey at 10 mg/kg, po by mass spectrometry; format: ADME, organism-based, Macaca fascicularis; set-up: dose 10 mg/kg, route oral; conditions: male, in vivo
[23] = Oral bioavailability in castrated cynomolgus monkey at 10 mg/kg by mass spectrometry; format: ADME, organism-based, Macaca fascicularis; conditions: male, in vivo
Cynomolgus monkey [24] = assay: Reduction in serum LH level in castrated male cynomolgus monkey at 30 mg/kg, po administered as single dose after 24 hrs by RIA method; format: functional; conditions: Macaca fascicularis
[25] = Tmax in Sprague-Dawley rat at 10 mg/kg, po by mass spectrometry; format: ADME, organism-based; conditions: in vivo
[26] = AUC in castrated male cynomolgus monkey at 30 mg/kg, po administered as single dose; format: ADME, organism-based, Macaca fascicularis; conditions: in vivo
[27] = AUC (infinity) in Sprague-Dawley rat at 10 mg/kg, po by mass spectrometry; format: ADME, organism-based; set-up: dose 10 mg/kg, route oral, time infinity; conditions: in vivo
[28] = Oral bioavailability in Sprague-Dawley rat at 10 mg/kg by mass spectrometry; format: ADME, organism-based; conditions: in vivo
Cynomolgus monkey [29] = assay: Reduction in serum LH level in castrated male cynomolgus monkey at 30 mg/kg, po administered as single dose after 12 to 24 hrs by RIA method; format: functional, organism-based; conditions: Macaca fascicularis
[30] = Selectivity index, ratio of IC50 for antagonist activity against monkey GnRH receptor expressed in HEK293 cells to IC50 for antagonist activity against human GnRH receptor expressed in HEK293 cells; format: cell-based
[31] = Selectivity index, ratio of IC50 for antagonist activity against rat GnRH receptor expressed in HEK293 cells to IC50 for antagonist activity against human GnRH receptor expressed in HEK293 cells; format: cell-based

| Structure (SMILES) | IC50 [1] [nM] | inhibition at 0.5 h, 10 µM (CYP3A4) [%] | IC50 [2] [nM] | other results |
| --- | --- | --- | --- | --- |
| Cc1c(N2CCN(Cc3cccc([N+](=O)[O-])c3)CC2)c(=O)n(C[C@H](N)c2ccccc2OCC(=O)O)c(=O)n1Cc1c(F)cccc1C(F)(F)F | 27.7 | 30 | 0.23 | – |
| Cc1c(N2CCN(Cc3ccc(C(F)(F)F)o3)CC2)c(=O)n(C[C@H](NCCCP(=O)(O)O)c2ccccc2)c(=O)n1Cc1c(F)cccc1C(F)(F)F | 411 | 16 | 1.2 | – |
| Cc1c(N2CCN(Cc3cccc([N+](=O)[O-])c3)CC2)c(=O)n(C[C@H](N)c2ccccc2OCCCC(=O)O)c(=O)n1Cc1c(F)cccc1C(F)(F)F | 26.9 | 57 | 0.14 | – |
| Cc1c(N2CCN(Cc3cccc(C(=O)NCCCC(=O)O)c3)CC2)c(=O)n(C[C@H](N)c2ccccc2)c(=O)n1Cc1c(F)cccc1C(F)(F)F | 376 | 66 | 1.1 | – |
| Cc1c(N2CCN(Cc3cccc(C(F)(F)F)c3)CC2)c(=O)n(C[C@H](N)c2ccccc2)c(=O)n1Cc1c(F)cccc1C(F)(F)F | 27.9 | 96 | 0.33 to 0.52 | – |
| Cc1c(N2CCN(Cc3cccc(C(N)=O)c3)CC2)c(=O)n(C[C@H](N)c2ccccc2)c(=O)n1Cc1c(F)cccc1C(F)(F)F | 86.5 | 93 | 1.95 | – |
| Cc1c(N2CCN(Cc3ccc(C(F)(F)F)o3)CC2)c(=O)n(C[C@H](NCCCC(=O)O)c2ccccc2)c(=O)n1Cc1c(F)cccc1C(F)(F)F [listing 1 of 2 here] | 13 | 21 | 0.44 to 0.46 | IC50 [3]: 279 nM; IC50 [4]: 13.2 nM; IC50 [5]: 2.9 nM; IC50 [6]: 6.32 nM; IC50 [7]: 520 nM; IC50 [8]: 0.76 nM; IC50 [9]: 3.7 nM |
| Cc1c(N2CCN(Cc3ccc(C(F)(F)F)o3)CC2)c(=O)n(C[C@H](NCCCC(=O)O)c2ccccc2)c(=O)n1Cc1c(F)cccc1C(F)(F)F.Cl | – | – | – | AUC(0-inf) [10]: 1300 ng·h/mL; AUC(0-inf) [11]: 9600 ng·h/mL; Cmax [12]: 2700 ng/mL; inhibition in vivo at 30 mg/kg (Cynomolgus monkey [13]): 84%; Cmax [14]: 5500 ng/mL; Cmax [15]: 500 ng/mL; half-life [16]: 1.9 h; bioavailability [17]: 52.6%; Tmax [18]: 1.7 h; half-life [19]: 3.5 h; half-life [20]: 1.7 h; Tmax [21]: 1.3 h; Cmax [22]: 300 ng/mL; bioavailability [23]: 13.2%; inhibition in vivo at 30 mg/kg (Cynomolgus monkey [24]): 76%; Tmax [25]: 1.6 h; AUC [26]: 37000 ng·h/mL; AUC(0-inf) [27]: 1500 ng·h/mL; bioavailability [28]: 15.6% |
| Cc1c(N2CCN(Cc3ccc(C(F)(F)F)o3)CC2)c(=O)n(C[C@H](NCCCS(=O)(=O)O)c2ccccc2)c(=O)n1Cc1c(F)cccc1C(F)(F)F | 122 | 45 | 1.1 | – |
| CCOP(=O)(O)CCCN[C@@H](Cn1c(=O)c(N2CCN(Cc3ccc(C(F)(F)F)o3)CC2)c(C)n(Cc2c(F)cccc2C(F)(F)F)c1=O)c1ccccc1 | 184 | 45 | 1.8 | – |
| Cc1c(N2CCN(Cc3ccc(C(F)(F)F)o3)CC2)c(=O)n(C[C@H](NCCCC(=O)O)c2ccccc2)c(=O)n1Cc1c(F)cccc1C(F)(F)F [listing 2 of 2 here] | – | – | – | inhibition (Cynomolgus monkey [29]): Active; Ratio IC50 [30]: 2; Ratio IC50 [31]: 44 |
| Cc1c(N2CCN(Cc3ccc(C(F)(F)F)o3)CC2)c(=O)n(C[C@H](N)c2ccccc2)c(=O)n1Cc1c(F)cccc1C(F)(F)F | 12.6 | 96 | 0.95 | – |
| Cc1c(N2CCN(Cc3cccc(C(F)(F)F)c3)CC2)c(=O)n(C[C@H](NCCCC(=O)O)c2ccccc2)c(=O)n1Cc1c(F)cccc1C(F)(F)F | 49.5 | 22 | 0.68 | – |
| Cc1c(N2CCN(Cc3cccc(C(=O)NCC(=O)O)c3)CC2)c(=O)n(C[C@H](N)c2ccccc2)c(=O)n1Cc1c(F)cccc1C(F)(F)F | > 300 | 74 | > 10 | – |
| Cc1c(N2CCN(Cc3cccc([N+](=O)[O-])c3)CC2)c(=O)n(C[C@H](N)c2ccccc2O)c(=O)n1Cc1c(F)cccc1C(F)(F)F | 89.3 | 97 | 0.17 | – |
| Cc1c(N2CCN(Cc3cccc([N+](=O)[O-])c3)CC2)c(=O)n(C[C@H](N)c2ccccc2)c(=O)n1Cc1c(F)cccc1C(F)(F)F | 102 to 155 | 89 | 0.45 | – |
| Cc1c(N2CCN(Cc3cccc([N+](=O)[O-])c3)CC2)c(=O)n(C[C@H](NCCCC(=O)O)c2ccccc2)c(=O)n1Cc1c(F)cccc1C(F)(F)F | 60 | 17 | 1.42 | – |
| Cc1c(N2CCN(Cc3cccc(C(=O)NCCC(=O)O)c3)CC2)c(=O)n(C[C@H](N)c2ccccc2)c(=O)n1Cc1c(F)cccc1C(F)(F)F | 146 | 72 | 1.2 | – |
| Cc1ncccc1CN1CCN(c2c(C)n(Cc3c(F)cccc3C(F)(F)F)c(=O)n(C[C@H](N)c3ccccc3)c2=O)CC1 | 543 | – | 5.11 | – |
